Data published in ChEMBL document CHEMBL5252617, “Design, synthesis and biological evaluation of novel N-(methyl-d3) pyridazine-3-carboxamide derivatives as TYK2 inhibitors” (Bioorg Med Chem Lett, 2023).
Activity calls are given as the source filed them. No cut-off for these calls is given here.

What was measured:
[1] = target: T1, Non-receptor tyrosine-protein kinase TYK2 (Homo sapiens, UniProt P29597); assay: Inhibition of TYK2 dependent IFNalpha-stimulated STAT3 phosphorylation in human Jurkat cells; format: cell-based
[2] = Stability in human liver microsomes assessed as parent compound remaining measured after 60 mins; format: ADME, Microsome; conditions: read-out: Stability
[3] = Stability in mouse liver microsomes assessed as parent compound remaining measured after 60 mins; format: ADME, Microsome; conditions: read-out: Stability
[4] = target: T1, Non-receptor tyrosine-protein kinase TYK2; assay: Binding affinity to TYK2 JH2 domain (unknown origin) assessed as melting temperature at 10 uM by thermal shift assay; conditions: tested as the 2H-labelled form
[5] = target: T1, Non-receptor tyrosine-protein kinase TYK2; assay: Binding affinity to TYK2 JH2 domain (unknown origin) assessed as melting temperature at 1 uM by thermal shift assay; conditions: tested as the 2H-labelled form
Mus musculus = assay: Anti-colitis activity against anti-CD40 induced immunodeficient Rag1 KO colitis mouse model assessed as decrease in colon weight at 15 to 30 mg/kg, po bid; format: functional, organism-based; conditions: dose 15-30 mg/kg, tested as the 2H-labelled form

T1 sequence (P29597 whole entry): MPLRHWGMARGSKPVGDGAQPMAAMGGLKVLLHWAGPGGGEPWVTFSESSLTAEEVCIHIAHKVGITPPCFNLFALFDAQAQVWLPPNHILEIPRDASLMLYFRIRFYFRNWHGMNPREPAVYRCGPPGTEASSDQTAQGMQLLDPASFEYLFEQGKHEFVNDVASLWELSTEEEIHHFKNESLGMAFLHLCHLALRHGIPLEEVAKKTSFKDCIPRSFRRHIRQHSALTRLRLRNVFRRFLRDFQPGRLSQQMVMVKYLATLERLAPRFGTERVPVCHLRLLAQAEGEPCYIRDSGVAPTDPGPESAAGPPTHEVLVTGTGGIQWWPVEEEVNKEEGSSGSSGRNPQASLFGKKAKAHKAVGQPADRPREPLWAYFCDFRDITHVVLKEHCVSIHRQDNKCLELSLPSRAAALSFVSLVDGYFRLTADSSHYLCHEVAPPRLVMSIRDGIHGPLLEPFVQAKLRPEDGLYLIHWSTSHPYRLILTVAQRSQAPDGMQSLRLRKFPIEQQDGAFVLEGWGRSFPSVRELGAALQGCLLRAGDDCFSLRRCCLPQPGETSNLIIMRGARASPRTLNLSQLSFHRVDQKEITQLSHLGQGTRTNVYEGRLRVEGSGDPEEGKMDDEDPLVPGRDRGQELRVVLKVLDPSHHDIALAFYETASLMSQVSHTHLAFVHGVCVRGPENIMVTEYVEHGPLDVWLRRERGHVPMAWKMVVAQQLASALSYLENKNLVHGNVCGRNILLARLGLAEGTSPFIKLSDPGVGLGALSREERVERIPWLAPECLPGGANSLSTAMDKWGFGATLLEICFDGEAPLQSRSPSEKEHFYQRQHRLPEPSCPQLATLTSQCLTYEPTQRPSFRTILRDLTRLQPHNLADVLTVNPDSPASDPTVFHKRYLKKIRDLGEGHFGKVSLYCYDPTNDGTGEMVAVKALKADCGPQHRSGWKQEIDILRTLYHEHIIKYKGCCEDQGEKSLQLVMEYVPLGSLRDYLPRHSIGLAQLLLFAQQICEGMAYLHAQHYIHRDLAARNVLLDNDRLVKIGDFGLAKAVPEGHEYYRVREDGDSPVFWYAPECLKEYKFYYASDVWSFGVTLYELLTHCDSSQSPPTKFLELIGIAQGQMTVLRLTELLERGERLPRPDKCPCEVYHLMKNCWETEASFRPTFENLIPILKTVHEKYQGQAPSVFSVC

SMILES	IC50 [1] [nM]	remaining at 1 h [2] [%]	remaining at 1 h [3] [%]	Tm [4] [°C]	Tm [5] [°C]	Activity (Mus musculus)
[2H]C([2H])([2H])NC(=O)c1nnc(NC(=O)C2CC2)cc1Nc1cccc(C(=O)Nc2ccc(-c3ncn(C)n3)cc2)c1OC	14	–	–	–	–	–
[2H]C([2H])([2H])NC(=O)c1nnc(NC(=O)C2CC2)cc1Nc1cccc(C(=O)Nc2ccc(N3CCCCCC3=O)cc2)c1OC	2.5	0.39	5.63	–	–	–
[2H]C([2H])([2H])NC(=O)c1nnc(NC(=O)C2CC2)cc1Nc1cccc(C(=O)Nc2ccc(-c3ncn(CC)n3)cc2)c1OC	43	–	–	–	–	–
CNC(=O)c1nnc(NC(=O)C2CC2)cc1Nc1cccc(C(=O)Nc2ccc(N3CCCCC3)cc2)c1OC	–	–	–	63.4	58.2	–
CNC(=O)c1nnc(NC(=O)C2CC2)cc1Nc1cccc(C(=O)Nc2ccc(NC(=O)C3CCCC3)cc2)c1OC	–	–	–	56.2	52.7	–
[2H]C([2H])([2H])NC(=O)c1nnc(NC(=O)C2CC2)cc1Nc1cccc(C(=O)Nc2ccc(N3CCCC3=O)cc2)c1OC	8.3	86.9	55.1	–	–	–
[2H]C([2H])([2H])NC(=O)c1nnc(NC(=O)C2CC2)cc1Nc1cccc(C(=O)Nc2ccc(N3CCCCS3(=O)=O)cc2)c1OC	1.9	3.26	18.2	–	–	–
[2H]C([2H])([2H])NC(=O)c1nnc(NC(=O)C2CC2)cc1Nc1cccc(C(=O)Nc2ccc(NC(=O)C3CCCC3)cc2)c1OC	10	–	–	–	–	–
CNC(=O)c1nnc(NC(=O)C2CC2)cc1Nc1cccc(C(=O)Nc2ccc(N3CCCCC3=O)cc2)c1OC	–	–	–	66.6	60.6	–
CNC(=O)c1nnc(Nc2ccccn2)cc1Nc1cccc(C(=O)Nc2ccc(N3CCCCC3=O)cc2)c1OC	–	–	–	66.5	64	–
CNC(=O)c1nnc(NC(=O)C2CC2)cc1Nc1cccc(C(=O)Nc2ccc(-c3cccc(=O)[nH]3)cc2)c1OC	–	–	–	56.5	52.5	–
CNC(=O)c1nnc(NC(=O)C2CC2)cc1Nc1cccc(C(=O)Nc2cccc(-n3ccccc3=O)c2)c1OC	–	–	–	57.6	52.9	–
CNC(=O)c1nnc(NC(=O)C2CC2)cc1Nc1cccc(C(=O)Nc2ccc(C3CCCNC3=O)cc2)c1OC (centres undefined)	–	–	–	70.2	60.1	–
[2H]C([2H])([2H])NC(=O)c1nnc(Nc2ccccn2)cc1Nc1cccc(C(=O)Nc2ccc(N3CCCCC3=O)cc2)c1OC	0.81	44.5	23	–	–	–
[2H]C([2H])([2H])NC(=O)c1nnc(NC(=O)C2CC2)cc1Nc1cccc(C(=O)Nc2ccc(N3CCCCC3=O)c(Cl)c2)c1OC	3.1	0.06	4.53	–	–	–
CNC(=O)c1nnc(NC(=O)C2CC2)cc1Nc1cccc(C(=O)Nc2ccc(-c3ccc(F)c(=O)[nH]3)cc2)c1OC	–	–	–	60.1	55.9	–
[2H]C([2H])([2H])NC(=O)c1nnc(NC(=O)C2CC2)cc1Nc1cccc(C(=O)Nc2ccc(N3CCCCC3=O)cc2)c1OC	1.4	50.6	53.9	–	–	–
CNC(=O)c1nnc(NC(=O)C2CC2)cc1Nc1cccc(C(=O)Nc2ccc(N3CCCCS3(=O)=O)cc2)c1OC	–	–	–	64.8	58.7	–
[2H]C([2H])([2H])NC(=O)c1nnc(NC(=O)C2CC2)cc1Nc1cccc(C(=O)Nc2ccc(-n3ccccc3=O)cc2)c1OC	3.2	75.8	71.3	–	–	–
CNC(=O)c1nnc(Nc2ccc(F)cn2)cc1Nc1cccc(C(=O)Nc2ccc(N3CCCCC3=O)cc2)c1OC	–	–	–	68.8	66	–
[2H]C([2H])([2H])NC(=O)c1nnc(Nc2ccc(F)cn2)cc1Nc1cccc(C(=O)Nc2ccc(N3CCCCC3=O)cc2)c1OC	1	39.9	27.5	–	–	–

SMILES	IC50 [1] [nM]	remaining at 1 h [2] [%]	remaining at 1 h [3] [%]	Tm [4] [°C]	Tm [5] [°C]	Activity (Mus musculus)
CNC(=O)c1nnc(NC(=O)C2CC2)cc1Nc1cccc(C(=O)Nc2ccc(-n3ccnc3)cc2)c1OC	–	–	–	54	52.2	–
CNC(=O)c1nnc(NC(=O)C2CC2)cc1Nc1cccc(C(=O)Nc2ccc(-c3cccnc3)cc2)c1OC	–	–	–	55.5	54.1	–
[2H]C([2H])([2H])NC(=O)c1nnc(NC(=O)C2CC2)cc1Nc1cccc(C(=O)Nc2cccc(-n3ccccc3=O)c2)c1OC	11	–	–	–	–	–
CNC(=O)c1nnc(NC(=O)C2CC2)cc1Nc1cccc(C(=O)Nc2ccc(N3CCCC3=O)cc2)c1OC	–	–	–	61.9	56.5	–
[2H]C([2H])([2H])NC(=O)c1nnc(NC(=O)C2CC2)cc1Nc1cccc(C(=O)Nc2ccc(N3CCCCC3=O)cc2F)c1OC	5.7	37.8	36.6	–	–	–
[2H]C([2H])([2H])NC(=O)c1nnc(NC(=O)C2CC2)cc1Nc1cccc(C(=O)Nc2ccc(-c3cccnc3)cc2)c1OC	24	–	–	–	–	–
CNC(=O)c1nnc(NC(=O)C2CC2)cc1Nc1cccc(C(=O)Nc2ccc(-c3ncn(C4CC4)n3)cc2)c1OC	–	–	–	62	57	Active
[2H]C([2H])([2H])NC(=O)c1nnc(NC(=O)C2CC2)cc1Nc1cccc(C(=O)Nc2ccc(-c3ccc(F)c(=O)[nH]3)cc2)c1OC	13	81.8	58.2	–	–	–
[2H]C([2H])([2H])NC(=O)c1nnc(NC(=O)C2CC2)cc1Nc1cccc(C(=O)Nc2ccc(C3CCCNC3=O)cc2)c1OC (centres undefined)	1.8	41.8	44.8	–	–	–
CNC(=O)c1nnc(NC(=O)C2CC2)cc1Nc1cccc(C(=O)Nc2ccc(-n3cccn3)cc2)c1OC	–	–	–	61.1	56.2	–
CNC(=O)c1nnc(NC(=O)C2CC2)cc1Nc1cccc(C(=O)Nc2ccc(-c3ncn(C)n3)cc2)c1OC	–	–	–	57	53.8	–
[2H]C([2H])([2H])NC(=O)c1nnc(NC(=O)C2CC2)cc1Nc1cccc(C(=O)Nc2ccc(-n3ccnc3)cc2)c1OC	51	–	–	–	–	–
CNC(=O)c1nnc(NC(=O)C2CC2)cc1Nc1cccc(C(=O)Nc2ccc(-n3ccccc3=O)cc2)c1OC	–	–	–	62.2	56	–
[2H]C([2H])([2H])NC(=O)c1nnc(NC(=O)C2CC2)cc1Nc1cccc(C(=O)Nc2ccc(-c3cccc(=O)[nH]3)cc2)c1OC	55	–	–	–	–	–
[2H]C([2H])([2H])NC(=O)c1nnc(NC(=O)C2CC2)cc1Nc1cccc(C(=O)Nc2ccc(N3CCCCC3)cc2)c1OC	12	1.91	9	–	–	–
CNC(=O)c1nnc(NC(=O)C2CC2)cc1Nc1cccc(C(=O)Nc2ccc(N3CCCCC3=O)c(Cl)c2)c1OC	–	–	–	65.5	60.4	–
CNC(=O)c1nnc(NC(=O)C2CC2)cc1Nc1cccc(C(=O)Nc2ccc(N3CCCCC3=O)cc2F)c1OC	–	–	–	60.8	56.2	–
CNC(=O)c1nnc(NC(=O)C2CC2)cc1Nc1cccc(C(=O)Nc2ccc(N3CCCCCC3=O)cc2)c1OC	–	–	–	64.8	59.6	–
CCn1cnc(-c2ccc(NC(=O)c3cccc(Nc4cc(NC(=O)C5CC5)nnc4C(=O)NC)c3OC)cc2)n1	–	–	–	58.2	54.9	–
[2H]C([2H])([2H])NC(=O)c1nnc(NC(=O)C2CC2)cc1Nc1cccc(C(=O)Nc2ccc(-n3cccn3)cc2)c1OC	6.4	78.5	54.9	–	–	–
